Among the data in ChEMBL document CHEMBL1147078, “Triptolide is a traditional Chinese medicine-derived inhibitor of polycystic kidney disease” (Proc Natl Acad Sci U S A, 2007) are Activity and viability values, retold here.

The species entered for data set [1] is Mus musculus. Put plainly: Increase in calcium release in mouse Pkd1-/- cells at 50 uM in presence of RyR antagonist dantrolene. It is filed as functional, cell-based.
The nature of data set [2]: Growth inhibition of mouse Pkd2-/- PC2-null cells assessed as cell viability at 100 nM after 24 hrs. The format is functional. The following applies: read-out: Activity.
Data set [3] deals with Mus musculus. As to the kind of experiment: Toxicity in C57BL/6 mouse embryos at >=0.1 mg/kg/day, ip. The following applies: in vivo. It is filed as organism-based.
For data set [4], the species on record is Mus musculus. As to the kind of experiment: Increase in p21CIP/WAF expression in mouse Pkd1-/- cells at 100 nM after 96 hrs by Western blot analysis. It is filed as functional, cell-based.
The species named for data set [5] is Mus musculus. Put plainly: Growth inhibition of PC2 expressing mouse Pkd2+/- cells as cell death at 100 nM after 24 hrs. It is filed as functional.
Data set [6] concerns Mus musculus. Put plainly: Effect on Pkd1+/- and Pkd1+/- inter crossed mouse assessed as decrease in kidney cyst burden in […] genotypic embryos at 0.07 mg/kg, ip from E10.5 stage to untill birth relative to control. The format is functional, organism-based. Also on record: dose 0.07 mg/kg.
A short description of data set [7]: Growth inhibition of PC2 reconstituted mouse Pkd2-/- cells assessed as cell death at 100 nM after 24 hrs. It is filed as functional. Details: scale not given: the % may be the effect or the level left.
Data set [8] is filed under the species Mus musculus. As to the kind of experiment: Increase in calcium release in mouse Pkd2-/- cells at 100 nM. It is filed as functional, cell-based.
The nature of data set [9]: Growth inhibition of mouse Pkd2-/- PC2-null cells assessed as cell death at 100 nM after 48 hrs. It is filed as functional. Also on record: scale not given: the % may be the effect or the level left.
The species named for data set [10] is Mus musculus. As to the kind of experiment: Induction of cell growth arrest in mouse Pkd1-/- cells in presence of calcium. The format is functional, cell-based.
Another data set relates to Pkd. As to the kind of experiment: Increase in calcium response in mouse Pkd cells at […]. The format is functional, cell-based.
The species named for data set [11] is Mus musculus. Put plainly: Increase in PC2 dependent calcium release in mouse Pkd1-/- cells at 100 nM. It is filed as functional, cell-based.
Data set [12] is filed under the species Mus musculus. As to the kind of experiment: Increase in PC2 dependent calcium release in mouse Pkd1+/- cells at 100 nM. The format is functional, cell-based.
For data set [13], the system named is Mus musculus. As to the kind of experiment: Toxicity in C57BL/6 mouse embryos at […], ip. Details: route intraperitoneal. The settings on record: in vivo. It is filed as organism-based.

Calls of active or inactive are those of the source. No cut-off for these calls is given here. Some results are limits rather than exact numbers.

On to `CC(C)[C@]12O[C@H]1[C@@H]1O[C@]13[C@]1(O[C@H]1C[C@H]1C4=C(CC[C@@]13C)C(=O)OC4)[C@@H]2O` [TRIPTOLIDE], for which the outcome in the data set listed under Mus musculus [1], in the data set listed under Mus musculus [4], in the data set filed under Mus musculus [5], with Mus musculus [6], in the data set listed under Mus musculus [10] and in the data set listed under Mus musculus [11] was Active. The result in the data set filed under Mus musculus [12] was Active. For the same compound, in data set [2], the viability at 0.1 µM was above 90%. In addition, the Activity entry in the data set on Mus musculus [3] is given as “Toxic”; in data set [7], above 80%; in data set [9] it was above 50%; in the data set with Mus musculus [13] it was “Non-toxic”. The result in the data set listed under Mus musculus [8] and in the data set on Pkd was inactive.
